Test results as given in ChEMBL document CHEMBL3739393, “Synthesis, Structural Characterization, and Bioactivity of the Stable Peptide RCB-1 from Ricinus communis” (J Nat Prod, 2015).
Positions of bridges follow the written chain, without caps; N, C: chain ends. Residues, ends and D or L forms follow the SMILES beside them.

Experiments:
Aspergillus fumigatus = assay: Antifungal activity against Aspergillus fumigatus incubated for 5 hrs; type: functional, organism-based
[1] = Cytotoxicity against human U937/GTB cells up to 50 uM by fluorescein diacetate-based fluorometric microculture cytotoxicity assay; type: cell-based; conditions: u-937/gtb
Escherichia coli = assay: Antibacterial activity against Escherichia coli ATCC 25922 incubated for 5 hrs; type: functional, organism-based; conditions: ATCC 25922, 5 h
Candida albicans = assay: Antifungal activity against Candida albicans ATCC 90028 incubated for 5 hrs; type: functional, organism-based; conditions: ATCC 90028, 5 h
[2] = system: Pectobacterium carotovorum; assay: Antibacterial activity against Erwinia carotovora incubated for 5 hrs; type: functional, organism-based
Staphylococcus aureus = assay: Antibacterial activity against Staphylococcus aureus ATCC 29213 incubated for 5 hrs; type: functional, organism-based; conditions: ATCC 29213, 5 h
Pseudomonas aeruginosa = assay: Antibacterial activity against Pseudomonas aeruginosa ATCC 27853 incubated for 5 hrs; type: functional, organism-based; conditions: ATCC 27853, 5 h
Erwinia amylovora = assay: Antibacterial activity against Erwinia amylovora incubated for 5 hrs; type: functional, organism-based
[3] = Stability in human serum assessed as compound remaining after 24 hrs at 37 degC by LC/MS analysis; type: ADME; conditions: read-out: Stability

## CSCC[C@@H]1NC(=O)[C@H](C(C)C)NC(=O)[C@H](CC(C)C)NC(=O)[C@@H]2CSSC[C@@H](C(=O)N[C@@H](CO)C(=O)O)NC(=O)[C@H](Cc3ccccc3)NC(=O)[C@H](CCCCN)NC(=O)[C@H](C(C)C)NC(=O)[C@H](CSSC[C@H](NC(=O)[C@H](CCCNC(=N)N)NC(=O)[C@H](C)N)C(=O)N2)NC(=O)[C@H](C)NC(=O)[C@H](Cc2ccccc2)NC(=O)[C@@H]2CCCN2C(=O)[C@@H]2CCCN2C(=O)[C@H](C(C)C)NC(=O)[C@@H]2CCCN2C1=O (H-ARCCLVMPVPPFACVKFCS-OH; disulfide 3-14, 4-18)
Aspergillus fumigatus
  EC50: > 160 µM
[1]
  Activity: Non-toxic
Escherichia coli
  EC50: > 160 µM
Candida albicans
  EC50: > 160 µM
[2]
  EC50: > 160 µM
Staphylococcus aureus
  EC50: > 160 µM
Pseudomonas aeruginosa
  EC50: 27 µM
Erwinia amylovora
  EC50: > 160 µM
[3]
  remaining at 24 h: > 95%
